The values below come from US7091311B2, “Peptides and compounds that bind to a receptor” (SmithKline Beecham Corporation, priority 1996, dated 2006).

Where a SMILES comes first, the peptide text is derived from it.

As a reminder, the IC50 is the point on the concentration scale where inhibition reaches its midpoint.

The first assay has as its target T1, TPO-R (Homo sapiens, UniProt P40238).
T1 construct: made in house
T1 sequence (P40238 26-491 limits assumed): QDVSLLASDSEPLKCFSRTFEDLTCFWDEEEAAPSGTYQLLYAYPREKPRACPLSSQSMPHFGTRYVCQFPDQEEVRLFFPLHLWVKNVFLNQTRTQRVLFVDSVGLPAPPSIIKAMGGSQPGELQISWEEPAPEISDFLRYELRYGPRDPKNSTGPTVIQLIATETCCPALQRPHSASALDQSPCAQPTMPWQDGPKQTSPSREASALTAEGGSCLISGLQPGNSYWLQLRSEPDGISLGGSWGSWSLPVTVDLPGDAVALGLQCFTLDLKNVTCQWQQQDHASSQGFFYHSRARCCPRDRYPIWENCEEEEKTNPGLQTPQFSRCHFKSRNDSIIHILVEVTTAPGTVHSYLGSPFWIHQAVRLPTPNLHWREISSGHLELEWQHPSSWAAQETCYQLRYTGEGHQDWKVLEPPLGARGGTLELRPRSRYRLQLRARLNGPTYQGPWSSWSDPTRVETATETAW
In words: competition binding assay: MBP-TPO156 binding to immobilized TPO-R (ELISA). To be noted: Table 4, cyclized compounds; read-out: IC50. The protocol: A variety of methods can be used to evaluate IC50 values. For example, an equilibrium binding ELISA assay, using either MBP-TPO or lacI-peptide tracer, was used to determine whether the peptides inhibit the binding of TPO to the extracellular domain of the TPO receptor. Typically, the IC50 value were determined using the free peptide. The IC50value can be determined using the free peptide, which optionally can be C-terminally amidated, or can be prepared as an ester or other carboxy amide.
Binding affinities of chemically synthesized peptides for TPO-R were measured in a competition binding assay. The wells of a microtiter plate were coated with 1 mg streptavidin, blocked with PBS/1% BSA, followed by 50 ng of biotinylated anti-receptor immobilizing antibody (Ab179). The wells were then treated with a 1:10 dilution of soluble TPO-R harvest. Various concentrations of peptide or peptide mimetic were mixed with a constant amount of a truncated form of TPO consisting of residues 1–156 fused to the C-terminus of maltose binding protein (MBP-TPO156). The peptide MBP-TPO156 mixtures were added to the TPO-R coated wells, incubated for 2 hours at 4° C. and then washed with PBS. The amount of MBP-TPO156 that was bound at equilibrium was measured by adding a rabbit anti-sera directed against MBP, followed by alkaline phosphatase conjugated goat anti-rabbit IgG. The amount of alkaline phosphatase in each well was then determined using standard methods.
The assay is conducted over a range of peptide concentrations and the results are graphed such that the y axis represents the amount of bound MBP-TPO156 and the x axis represents the concentration of peptide or peptide mimetic.
(In an ELISA, binding on a coated surface is turned into a signal by an enzyme label.)
Take `CC[C@H](C)[C@@H]1NC(=O)[C@H](Cc2c[nH]c3ccccc23)NC(=O)[C@H](CCC(=O)O)NC(=O)[C@H](CCCNC(=N)N)NC(=O)[C@H](CC(C)C)NC(=O)[C@H]([C@@H](C)O)NC(=O)[C@@H]2CCCN2C(=O)CNC(=O)[C@H](CC(=O)O)NC(=O)[C@H](C)NC(=O)CSC[C@@H](C(N)=O)NC(=O)[C@H](Cc2ccccc2)NC(=O)[C@H](CO)NC1=O` (HELM PEPTIDE1{[O=C(C[*:3])[*:2]].A.D.G.P.T.L.R.E.W.I.S.F.C.[am]}$PEPTIDE1,PEPTIDE1,1:R3-14:R3$$$V2.0): the half-maximal inhibitory concentration (IC50) is not above 500 nM.

The assay is the same for the next values; noted with them: Table 6; read-out: IC50.
As to `CC[C@H](C)[C@@H]1NC(=O)[C@H](Cc2c[nH]c3ccccc23)NC(=O)[C@H](CCC(=O)O)NC(=O)[C@H](CCCNC(=N)N)NC(=O)[C@H](CC(C)C)NC(=O)[C@H]([C@@H](C)O)NC(=O)[C@@H]2CCCN2C(=O)CNC(=O)[C@H](CC(=O)O)NC(=O)[C@H](C)NC(=O)CSC[C@@H](C(=O)NCC(N)=O)NC(=O)[C@H](Cc2ccccc2)NC(=O)[C@H](CO)NC1=O` [C-term, Gly addition] (HELM PEPTIDE1{[O=C(C[*:3])[*:2]].A.D.G.P.T.L.R.E.W.I.S.F.C.G.[am]}$PEPTIDE1,PEPTIDE1,1:R3-14:R3$$$V2.0; C-terminus assumed), the IC50 is not above 500 nM.

Staying with this assay, now noted: Table 7, dimer compounds; read-out: IC50.
Take `CSCC[C@H](N)C(=O)N[C@H](C(=O)NCC(=O)N1CCC[C@H]1C(=O)N[C@H](C(=O)N[C@@H](CC(C)C)C(=O)N[C@@H](CCCNC(=N)N)C(=O)N[C@@H](CO)C(=O)NCC(=O)N[C@@H](CSSC[C@H](NC(=O)CNC(=O)[C@H](CO)NC(=O)[C@H](CCCNC(=N)N)NC(=O)[C@H](CC(C)C)NC(=O)[C@@H](NC(=O)[C@@H]1CCCN1C(=O)CNC(=O)[C@@H](NC(=O)[C@@H](N)CCSC)C(C)C)[C@@H](C)O)C(N)=O)C(N)=O)[C@@H](C)O)C(C)C` (HELM PEPTIDE1{M.V.G.P.T.L.R.S.G.C.[am]}|PEPTIDE2{M.V.G.P.T.L.R.S.G.C.[am]}$PEPTIDE1,PEPTIDE2,10:R3-10:R3$$$V2.0): the IC50 worked out at 200000 nM.

Take `CC(C)C[C@H](NC(=O)[C@H](Cc1c[nH]c2ccccc12)NC(=O)[C@H](CCC(N)=O)NC(=O)[C@H](CCCNC(=N)N)NC(=O)[C@H](CC(C)C)NC(=O)[C@@H](NC(=O)[C@@H]1CCCN1C(=O)CNC(=O)[C@H](CSSC[C@H](NC(=O)[C@H](CCC(N)=O)NC(=O)[C@@H](NC(=O)[C@@H](N)CO)C(C)C)C(=O)NCC(=O)N1CCC[C@H]1C(=O)N[C@H](C(=O)N[C@@H](CC(C)C)C(=O)N[C@@H](CCCNC(=N)N)C(=O)N[C@@H](CCC(N)=O)C(=O)N[C@@H](Cc1c[nH]c2ccccc12)C(=O)N[C@@H](CC(C)C)C(=O)N[C@@H](C)C(=O)N[C@@H](C)C(=O)N[C@@H](CCCNC(=N)N)C(=O)N[C@@H](CC(N)=O)C(=O)N[C@@H](Cc1c[nH]cn1)C(=O)N[C@@H](CC(C)C)C(=O)N[C@@H](CO)C(N)=O)[C@@H](C)O)NC(=O)[C@H](CCC(N)=O)NC(=O)[C@@H](NC(=O)[C@@H](N)CO)C(C)C)[C@@H](C)O)C(=O)N[C@@H](C)C(=O)N[C@@H](C)C(=O)N[C@@H](CCCNC(=N)N)C(=O)N[C@@H](CC(N)=O)C(=O)N[C@@H](Cc1c[nH]cn1)C(=O)N[C@@H](CC(C)C)C(=O)N[C@@H](CO)C(N)=O` (HELM PEPTIDE1{S.V.Q.C.G.P.T.L.R.Q.W.L.A.A.R.N.H.L.S.[am]}|PEPTIDE2{S.V.Q.C.G.P.T.L.R.Q.W.L.A.A.R.N.H.L.S.[am]}$PEPTIDE1,PEPTIDE2,4:R3-4:R3$$$V2.0): the IC50 is not above 500 nM.

As to `CC[C@H](C)[C@H](NC(=O)[C@H](Cc1c[nH]c2ccccc12)NC(=O)[C@H](CCC(=O)O)NC(=O)[C@H](CCCNC(=N)N)NC(=O)[C@H](CC(C)C)NC(=O)[C@@H](NC(=O)[C@@H]1CCCN1C(=O)CNC(=O)[C@H](CC(=O)O)NC(=O)[C@H](C)NC(C)=O)[C@@H](C)O)C(=O)N[C@@H](CO)C(=O)N[C@@H](Cc1ccccc1)C(=O)N[C@@H](CSSC[C@H](NC(=O)[C@H](Cc1ccccc1)NC(=O)[C@H](CO)NC(=O)[C@@H](NC(=O)[C@H](Cc1c[nH]c2ccccc12)NC(=O)[C@H](CCC(=O)O)NC(=O)[C@H](CCCNC(=N)N)NC(=O)[C@H](CC(C)C)NC(=O)[C@@H](NC(=O)[C@@H]1CCCN1C(=O)CNC(=O)[C@H](CC(=O)O)NC(=O)[C@H](C)NC(C)=O)[C@@H](C)O)[C@@H](C)CC)C(N)=O)C(N)=O` (HELM PEPTIDE1{[ac].A.D.G.P.T.L.R.E.W.I.S.F.C.[am]}|PEPTIDE2{[ac].A.D.G.P.T.L.R.E.W.I.S.F.C.[am]}$PEPTIDE1,PEPTIDE2,14:R3-14:R3$$$V2.0; C-terminus assumed), the IC50 was not above 500 nM.

For `CC[C@H](C)[C@H](NC(=O)[C@H](Cc1c[nH]c2ccccc12)NC(=O)[C@H](CCC(=O)O)NC(=O)[C@H](CCCNC(=N)N)NC(=O)[C@H](CC(C)C)NC(=O)[C@@H](NC(=O)[C@@H]1CCCN1C(=O)CNC(=O)[C@H](CC(=O)O)NC(C)=O)[C@@H](C)O)C(=O)N[C@@H](CO)C(=O)N[C@@H](Cc1ccccc1)C(=O)N[C@@H](CSSC[C@H](NC(=O)[C@H](Cc1ccccc1)NC(=O)[C@H](CO)NC(=O)[C@@H](NC(=O)[C@H](Cc1c[nH]c2ccccc12)NC(=O)[C@H](CCC(=O)O)NC(=O)[C@H](CCCNC(=N)N)NC(=O)[C@H](CC(C)C)NC(=O)[C@@H](NC(=O)[C@@H]1CCCN1C(=O)CNC(=O)[C@H](CC(=O)O)NC(C)=O)[C@@H](C)O)[C@@H](C)CC)C(N)=O)C(N)=O` (HELM PEPTIDE1{[ac].D.G.P.T.L.R.E.W.I.S.F.C.[am]}|PEPTIDE2{[ac].D.G.P.T.L.R.E.W.I.S.F.C.[am]}$PEPTIDE1,PEPTIDE2,13:R3-13:R3$$$V2.0; C-terminus assumed), the IC50 is not above 500 nM.

For the compound `CC[C@H](C)[C@H](NC(=O)[C@H](Cc1c[nH]c2ccccc12)NC(=O)[C@H](CCC(=O)O)NC(=O)[C@H](CCCNC(=N)N)NC(=O)[C@H](CC(C)C)NC(=O)[C@@H](NC(=O)[C@@H]1CCCN1C(=O)CNC(C)=O)[C@@H](C)O)C(=O)N[C@@H](CO)C(=O)N[C@@H](Cc1ccccc1)C(=O)N[C@@H](CSSC[C@H](NC(=O)[C@H](Cc1ccccc1)NC(=O)[C@H](CO)NC(=O)[C@@H](NC(=O)[C@H](Cc1c[nH]c2ccccc12)NC(=O)[C@H](CCC(=O)O)NC(=O)[C@H](CCCNC(=N)N)NC(=O)[C@H](CC(C)C)NC(=O)[C@@H](NC(=O)[C@@H]1CCCN1C(=O)CNC(C)=O)[C@@H](C)O)[C@@H](C)CC)C(N)=O)C(N)=O` (HELM PEPTIDE1{[ac].G.P.T.L.R.E.W.I.S.F.C.[am]}|PEPTIDE2{[ac].G.P.T.L.R.E.W.I.S.F.C.[am]}$PEPTIDE1,PEPTIDE2,12:R3-12:R3$$$V2.0; C-terminus assumed), the half-maximal inhibitory concentration (IC50) was not above 500 nM.

Take `CC[C@H](C)[C@H](NC(=O)[C@H](Cc1c[nH]c2ccccc12)NC(=O)[C@H](CCC(=O)O)NC(=O)[C@H](CCCNC(=N)N)NC(=O)[C@H](CC(C)C)NC(=O)[C@@H](NC(=O)[C@@H]1CCCN1C(C)=O)[C@@H](C)O)C(=O)N[C@@H](CO)C(=O)N[C@@H](Cc1ccccc1)C(=O)N[C@@H](CSSC[C@H](NC(=O)[C@H](Cc1ccccc1)NC(=O)[C@H](CO)NC(=O)[C@@H](NC(=O)[C@H](Cc1c[nH]c2ccccc12)NC(=O)[C@H](CCC(=O)O)NC(=O)[C@H](CCCNC(=N)N)NC(=O)[C@H](CC(C)C)NC(=O)[C@@H](NC(=O)[C@@H]1CCCN1C(C)=O)[C@@H](C)O)[C@@H](C)CC)C(N)=O)C(N)=O` (HELM PEPTIDE1{[ac].P.T.L.R.E.W.I.S.F.C.[am]}|PEPTIDE2{[ac].P.T.L.R.E.W.I.S.F.C.[am]}$PEPTIDE1,PEPTIDE2,11:R3-11:R3$$$V2.0; C-terminus assumed): the IC50 was not above 500 nM.

In the case of `CC[C@H](C)[C@H](NC(=O)[C@H](Cc1c[nH]c2ccccc12)NC(=O)[C@H](CCC(=O)O)NC(=O)[C@H](CCCNC(=N)N)NC(=O)[C@H](CC(C)C)NC(=O)[C@@H](NC(C)=O)[C@@H](C)O)C(=O)N[C@@H](CO)C(=O)N[C@@H](Cc1ccccc1)C(=O)N[C@@H](CSSC[C@H](NC(=O)[C@H](Cc1ccccc1)NC(=O)[C@H](CO)NC(=O)[C@@H](NC(=O)[C@H](Cc1c[nH]c2ccccc12)NC(=O)[C@H](CCC(=O)O)NC(=O)[C@H](CCCNC(=N)N)NC(=O)[C@H](CC(C)C)NC(=O)[C@@H](NC(C)=O)[C@@H](C)O)[C@@H](C)CC)C(N)=O)C(N)=O` (HELM PEPTIDE1{[ac].T.L.R.E.W.I.S.F.C.[am]}|PEPTIDE2{[ac].T.L.R.E.W.I.S.F.C.[am]}$PEPTIDE1,PEPTIDE2,10:R3-10:R3$$$V2.0; C-terminus assumed), the IC50 came out at 200000 nM.
